Reference: PubChem BioAssay AID1963850 (Molecular Pharmacology Branch, DTP, NCI, 2024)

Tested on: 192522-019-R-J2-PDC complex tumor spheroid viability
Assay: Anticancer human tumor 192522-019-R-J2-PDC patient-derived colon adenocarcinoma cell line growth inhibition [POLQ]
Details: for IC50: curve of first compound; for viability, T/C: stronger effect = lower value
How it was run: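 Growth inhibition in 3D: complex spheroids (tumor PDC, HUVEC, MSC) treated with POLQ inhibitor combinations; where Cmax unknown, highest tested concentration 10 microM, except SN-38 at 1 microM.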

[1] = second compound 0.0316 µM, first compound 0.0316 µM
[2] = second compound 0.0316 µM, first compound 0.1 µM
[3] = second compound 0.0316 µM, first compound 0.316 µM
[4] = second compound 0.0316 µM, first compound 1 µM
[5] = second compound 0.0316 µM, first compound 3.16 µM
[6] = second compound 0.0316 µM, first compound 10 µM
[7] = second compound 0.1 µM, first compound 0.0316 µM
[8] = second compound 0.1 µM, first compound 0.1 µM
[9] = second compound 0.1 µM, first compound 0.316 µM
[10] = second compound 0.1 µM, first compound 1 µM
[11] = second compound 0.1 µM, first compound 3.16 µM
[12] = second compound 0.1 µM, first compound 10 µM
[13] = second compound 0.316 µM, first compound 0.0316 µM
[14] = second compound 0.316 µM, first compound 0.1 µM
[15] = second compound 0.316 µM, first compound 0.316 µM
[16] = second compound 0.316 µM, first compound 1 µM
[17] = second compound 0.316 µM, first compound 3.16 µM
[18] = second compound 0.316 µM, first compound 10 µM
[19] = second compound 1 µM, first compound 0.0316 µM
[20] = second compound 1 µM, first compound 0.1 µM
[21] = second compound 1 µM, first compound 0.316 µM
[22] = second compound 1 µM, first compound 1 µM
[23] = second compound 1 µM, first compound 3.16 µM
[24] = second compound 1 µM, first compound 10 µM
[25] = second compound 3.16 µM, first compound 0.0316 µM
[26] = second compound 3.16 µM, first compound 0.1 µM
[27] = second compound 3.16 µM, first compound 0.316 µM
[28] = second compound 3.16 µM, first compound 1 µM
[29] = second compound 3.16 µM, first compound 3.16 µM
[30] = second compound 3.16 µM, first compound 10 µM
[31] = second compound 10 µM, first compound 0.0316 µM
[32] = second compound 10 µM, first compound 0.1 µM
[33] = second compound 10 µM, first compound 0.316 µM
[34] = second compound 10 µM, first compound 1 µM
[35] = second compound 10 µM, first compound 3.16 µM
[36] = second compound 10 µM, first compound 10 µM
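Also: spheroids exposed to drugs for seven days before reading.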
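For viability, T/C in this document: 100% = DMSO vehicle control viability in luminescence.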

`CC1COCCN1c1cc(-c2ccnn2C)c2ccnc(-c3ccn[nH]3)c2n1` (stereo unspecified) + Nc1ccc(C#CCN(C(=O)Cc2ncc(C(F)(F)F)cc2C(F)(F)F)c2ccc(F)cc2)nn1 was tested, and the IC50 (second compound 0.0316 µM) was 0.592 µM, the IC50 (second compound 0.1 µM) was 0.444 µM and the IC50 (second compound 0.316 µM) was 0.508 µM. For the same molecule, the IC50 (second compound 1 µM) was 0.651 µM, the IC50 (second compound 3.16 µM) was 0.57 µM and the IC50 (second compound 10 µM) was 0.895 µM. The viability, T/C [1] was 104%, the viability, T/C [2] was 83.7% and the viability, T/C [3] was 59.6%. It also gave a viability, T/C [4] of 37%, a viability, T/C [5] of 44% and a viability, T/C [6] of 46.1%. The viability, T/C [7] was 101%, the viability, T/C [8] was 86.1% and the viability, T/C [9] was 54.1%. The viability, T/C [10] was 38.7%, the viability, T/C [11] was 40.2% and the viability, T/C [12] was 46.2%. It also gave a viability, T/C [13] of 96.8%, a viability, T/C [14] of 93.5% and a viability, T/C [15] of 53.6%. The viability, T/C [16] was 35.5%, the viability, T/C [17] was 45.6% and the viability, T/C [18] was 54.2%. It also gave a viability, T/C [19] of 95.8%, a viability, T/C [20] of 84.5% and a viability, T/C [21] of 61.4%. The viability, T/C [22] was 40.2%, the viability, T/C [23] was 41.2% and the viability, T/C [24] was 45%. It also gave a viability, T/C [25] of 100%, a viability, T/C [26] of 81.9% and a viability, T/C [27] of 59.6%. The viability, T/C [28] was 36.5%, the viability, T/C [29] was 42% and the viability, T/C [30] was 47.1%. For the same molecule, the viability, T/C [31] was 97.8%, the viability, T/C [32] was 85.9% and the viability, T/C [33] was 63.9%. For the same molecule, the viability, T/C [34] was 43.5%, the viability, T/C [35] was 46.3% and the viability, T/C [36] was 50.8%.
Molecule `CC1COCCN1c1cc(C2(S(C)(=N)=O)CC2)nc(-c2ccnc3[nH]ccc23)n1` (stereo unspecified) + Nc1ccc(C#CCN(C(=O)Cc2ncc(C(F)(F)F)cc2C(F)(F)F)c2ccc(F)cc2)nn1 has an IC50 (second compound 0.0316 µM) of 5.87 µM, an IC50 (second compound 0.1 µM) of 6.81 µM and an IC50 (second compound 0.316 µM) of 6 µM. For the same molecule, the IC50 (second compound 1 µM) was 7 µM, the IC50 (second compound 3.16 µM) was 6.4 µM and the IC50 (second compound 10 µM) was 7.13 µM. It also gave a viability, T/C [1] of 101%, a viability, T/C [2] of 90.6% and a viability, T/C [3] of 102%. The viability, T/C [4] was 93.7%, the viability, T/C [5] was 68% and the viability, T/C [6] was 34.5%. The viability, T/C [7] was 106%, the viability, T/C [8] was 98.6% and the viability, T/C [9] was 102%. For the same molecule, the viability, T/C [10] was 100%, the viability, T/C [11] was 69.6% and the viability, T/C [12] was 40.1%. It also gave a viability, T/C [13] of 114%, a viability, T/C [14] of 100% and a viability, T/C [15] of 99.4%. The viability, T/C [16] was 90%, the viability, T/C [17] was 67.9% and the viability, T/C [18] was 35.5%. For the same molecule, the viability, T/C [19] was 103%, the viability, T/C [20] was 108% and the viability, T/C [21] was 100%. For the same molecule, the viability, T/C [22] was 96%, the viability, T/C [23] was 77% and the viability, T/C [24] was 37.8%. It also gave a viability, T/C [25] of 99.2%, a viability, T/C [26] of 100% and a viability, T/C [27] of 101%. It also gave a viability, T/C [28] of 100%, a viability, T/C [29] of 68% and a viability, T/C [30] of 38.5%. The viability, T/C [31] was 102%, the viability, T/C [32] was 101% and the viability, T/C [33] was 102%. The viability, T/C [34] was 105%, the viability, T/C [35] was 72.7% and the viability, T/C [36] was 40.5%.
Work on `CCCS(=O)(=O)Nc1ccc(F)c(C(=O)c2c[nH]c3ncc(-c4ccc(Cl)cc4)cc23)c1F` + Nc1ccc(C#CCN(C(=O)Cc2ncc(C(F)(F)F)cc2C(F)(F)F)c2ccc(F)cc2)nn1 yielded an IC50 (second compound 0.0316 µM) greater than 10 µM, an IC50 (second compound 0.1 µM) greater than 10 µM and an IC50 (second compound 0.316 µM) greater than 10 µM. For the same molecule, the IC50 (second compound 1 µM) was greater than 10 µM, the IC50 (second compound 3.16 µM) was greater than 10 µM and the IC50 (second compound 10 µM) was greater than 10 µM. It also gave a viability, T/C [1] of 109%, a viability, T/C [2] of 95.2% and a viability, T/C [3] of 109%. The viability, T/C [4] was 98.3%, the viability, T/C [5] was 121% and the viability, T/C [6] was 66.9%. It also gave a viability, T/C [7] of 106%, a viability, T/C [8] of 107% and a viability, T/C [9] of 104%. It also gave a viability, T/C [10] of 99.9%, a viability, T/C [11] of 101% and a viability, T/C [12] of 67.9%. The viability, T/C [13] was 102%, the viability, T/C [14] was 98.7% and the viability, T/C [15] was 99.4%. The viability, T/C [16] was 102%, the viability, T/C [17] was 101% and the viability, T/C [18] was 83.6%. The viability, T/C [19] was 98%, the viability, T/C [20] was 107% and the viability, T/C [21] was 97.9%. The viability, T/C [22] was 110%, the viability, T/C [23] was 125% and the viability, T/C [24] was 94.1%. For the same molecule, the viability, T/C [25] was 101%, the viability, T/C [26] was 102% and the viability, T/C [27] was 98.4%. For the same molecule, the viability, T/C [28] was 99.9%, the viability, T/C [29] was 113% and the viability, T/C [30] was 86.6%. For the same molecule, the viability, T/C [31] was 105%, the viability, T/C [32] was 106% and the viability, T/C [33] was 99.6%. The viability, T/C [34] was 110%, the viability, T/C [35] was 118% and the viability, T/C [36] was 78.1%.
